2 substances from patent US20130303439A1, “CHIMERIC PEPTIDES INCLUDING A PENETRATING PEPTIDE AND A BINDING DOMAIN OF PP2A CATALYTIC SUBUNIT TO CASPASE-9” (Institut National de la Sante et de la Recherche Medicale …, priority 2010, published 2013) can be followed below.

One assay has as its system CTLL. As to the kind of experiment: Cell death assay (annexin V / PI flow cytometry). It is filed as cell-based. The settings on record: murine CTLL; peptides at 150 μM. The procedure:
(§1) An Annexin-V-FITC conjugated kit (Roche) was used for the assessment of outer leaflet exposure of phosphatidylserine (PS) in the plasma membrane of apoptotic cells. Staining was performed according to the manufacturer's instructions. A total of […] cells were analyzed by flow cytometry in a FACSCalibur cytofluometer (BD Biosciences). Necrotic cells were excluded by propidium iodide (PI) staining, and single annexin V positive cells were considered apoptotic. For apoptotic analysis the different peptides were used at 150 μM.

The next assay concerns TS1αβ cells. Description: Cell death assay (annexin V / PI flow cytometry). It is filed as cell-based, murine. The settings on record: peptides at 150 μM. How it is done:
as §1
Using flow cytometry detection of annexin V and PI, the inventors analyzed the capacity of DPT-C9 to induce apoptosis in TS1αβ cells cultured in presence of IL-2. In contrast to non penetrating C9 peptide, DPT-C9 induced a 6-fold increase of apoptosis.
For orientation: Flow cytometry measures light scatter and fluorescence of single cells or particles in a stream.

In the next assay the test system is Jurkat. Description: Cell death assay (annexin V / PI flow cytometry). Particulars: peptides at 150 μM. It is filed as cell-based, human. How it is done: as §1
The subject of another assay is Daudi. Description: Cell death assay (annexin V / PI flow cytometry). It is filed as cell-based, human. The settings on record: peptides at 150 μM. How it is done: as §1
Another assay has as its system HeLa. As to the kind of experiment: Cell death assay (annexin V / PI flow cytometry). Particulars: peptides at 150 μM. The class given is cell-based, human. The procedure: as §1
The test system of a further assay is Daudi cells. Description: Apoptosis assay (Annexin V-FITC), Example 2. It is filed as cell-based, human. Particulars: FIG. 1: 100 microM, 12 and 24 h, method says 150 mM, compared to control non-treated. How it is done:
FIG. 1. Daudi cell line was cultured in RPMI 1640 medium in the presence of DPT-PP2Ah peptide (100 microM). At 12 and 24 h, we analyze the apoptotic effect of the peptide by annexine stainin.
(§2) Annexin V-FITC kit was used for detection of apoptosis and staining was performed according to the manufacturer's instructions. A total of 1×10^5 cells were analyzed by flow cytometry in a FACSCalibur cytometer (BD Biosicences). Necrotic cells were excluded by PI staining and annexin V positive cells were considered apoptotic. The effect of DPT-PP2Ah was compared to untreated control cells or to DPT-C9h-treated cells. Penetrating peptides were used at […]. The shuttle alone (DPT-sh1) was also used as a control.

The test system of assay [1] is primary cells isolated from xenograft model of breast cancer (BC52). Description: Apoptosis by annexin staining in primary cells from xenograft model. The class given is cell-based. The settings on record: 100 microM, 16 h, compared to control non-treated cells. The procedure: (§3) FIG. 2 Cell isolated form xenograft models of lung cancer (LCF25), breast cancer (BC52) and uveal melanoma (KMP41) were cultured in DMEM medium in the absence (control) or in the presence of 100 microM of DPT-PP2Ah peptide. After 16 h of culture, apoptosis was estimated by annexin staining.
as §2

Assay [2] concerns primary cells isolated from xenograft model of lung cancer (LCF25). The assay is described as above. The settings on record: 100 microM, 16 h, compared to control non-treated cells. It is filed as cell-based. How it is done:
as §3, §2

Assay [3] relates to primary cells isolated from xenograft model of uveal melanoma (KMP41). The description is as above. The class given is cell-based. Particulars: 100 microM, 16 h, compared to control non-treated cells. The procedure:
as §3, §2

Assay [4] relates to triple negative breast cancer model BC11. As to the kind of experiment: In vivo tumor growth inhibition of primary human breast cancer xenografts. Details: species or system mice. Particulars: once daily for 5 weeks. From the text: The primary human xenografts were obtained as previously described (Marangoni et al., (2007) Clin Cancer Res 13:3989-3998, de Plater et al., (2010) Br J Cancer 103:1192-1200. Spontaneously growing mammary tumors […] were xenografted into nude immunodeficient mice to allow pharmacological assessments, and maintained from nude mouse to nude mouse serially passages.
For therapeutic experimental assays, 5- to 8-week old Swiss nu/nu female mice received a subcutaneous graft of tumor fragments with a volume of approximately 15 mm^3. Tumors developed at the graft site 2 to 6 weeks later. Mice bearing growing tumors with a volume of 40 to 200 mm^3 were individually identified and randomly assigned to the control or treatment groups (9-10 animals in each group) and treatments were started on day 1. Mice were weighed twice a week. Tumour-bearing mice were sacrificed when the tumor volume reached 2500 mm^3, defined as the ethical limit. Tumor volumes and antitumor activity were evaluated as previously reported (Marangoni et al., (2007) Clin Cancer Res 13:3989-3998).
DPT-PP2Ah peptide diluted in water/glucose (1 to 25 mg/kg) was given by intraperitoneally route 7 days per week.
To evaluate the potential antitumor effect of DPT-PP2Ah, we treated mice bearing the triple negative breast cancer model BC11. […]

Consider “VKKKKIKREIKI-YVETLDGIFEQWAHSEDL (VKKKKIKREIKIYVETLDGIFEQWAHSEDL; Synthetic human DPT-C9) [DPT-C9h]”, for which, in the assay on CTLL, the “cell death (in words)” value is on record as “unable to cause cell death”. Besides, the “induction of apoptosis / cell death (in words)” value in the assay with TS1αβ cells is listed as “unable to cause cell death”. Also, the increase of apoptosis with Jurkat, in the assay with Daudi and in the assay with HeLa was 5 fold each time. Also, in the assay with Daudi cells, the “apoptosis (annexin staining)” value was “lower apoptosis”.

As to “VKKKKIKREIKIDTLDHIRALDRLQEVPHEGP (Synthetic DPT-PP2Ah)”, the “apoptosis (annexin staining)” value in assay [1] is given as “induces apoptosis”; in assay [2] it was “induces apoptosis”; in assay [3] it was “induces apoptosis”; in the assay on Daudi cells, “strongly induces apoptosis”. The “tumor growth inhibition (TGI)” value in assay [4] (1 mg/kg intraperitoneally, relative to 5 mg/kg) was “lower”; in [4] (5 mg/kg intraperitoneally, end of treatment) it was “significant tumor growth inhibition”.
